The values below come from ChEMBL document CHEMBL4814078, “Novel CFTR Modulators for Treating Cystic Fibrosis” (ACS Med Chem Lett, 2021).

One may read the EC50 as the concentration giving half of the maximal effect.

In the assay the target is Cystic fibrosis transmembrane conductance regulator (Homo sapiens, UniProt P13569). The experiment in a line: Potentiation of CFTR in primary human epithelial enteroid cells assessed as chloride transport in presence of forskolin by measuring membrane potential incubated for 18 to 24 hrs by FLIPR Tetra based dye assay. In kind it is tissue-based, Epithelial cell.
Sequence of Cystic fibrosis transmembrane conductance regulator (P13569 whole entry): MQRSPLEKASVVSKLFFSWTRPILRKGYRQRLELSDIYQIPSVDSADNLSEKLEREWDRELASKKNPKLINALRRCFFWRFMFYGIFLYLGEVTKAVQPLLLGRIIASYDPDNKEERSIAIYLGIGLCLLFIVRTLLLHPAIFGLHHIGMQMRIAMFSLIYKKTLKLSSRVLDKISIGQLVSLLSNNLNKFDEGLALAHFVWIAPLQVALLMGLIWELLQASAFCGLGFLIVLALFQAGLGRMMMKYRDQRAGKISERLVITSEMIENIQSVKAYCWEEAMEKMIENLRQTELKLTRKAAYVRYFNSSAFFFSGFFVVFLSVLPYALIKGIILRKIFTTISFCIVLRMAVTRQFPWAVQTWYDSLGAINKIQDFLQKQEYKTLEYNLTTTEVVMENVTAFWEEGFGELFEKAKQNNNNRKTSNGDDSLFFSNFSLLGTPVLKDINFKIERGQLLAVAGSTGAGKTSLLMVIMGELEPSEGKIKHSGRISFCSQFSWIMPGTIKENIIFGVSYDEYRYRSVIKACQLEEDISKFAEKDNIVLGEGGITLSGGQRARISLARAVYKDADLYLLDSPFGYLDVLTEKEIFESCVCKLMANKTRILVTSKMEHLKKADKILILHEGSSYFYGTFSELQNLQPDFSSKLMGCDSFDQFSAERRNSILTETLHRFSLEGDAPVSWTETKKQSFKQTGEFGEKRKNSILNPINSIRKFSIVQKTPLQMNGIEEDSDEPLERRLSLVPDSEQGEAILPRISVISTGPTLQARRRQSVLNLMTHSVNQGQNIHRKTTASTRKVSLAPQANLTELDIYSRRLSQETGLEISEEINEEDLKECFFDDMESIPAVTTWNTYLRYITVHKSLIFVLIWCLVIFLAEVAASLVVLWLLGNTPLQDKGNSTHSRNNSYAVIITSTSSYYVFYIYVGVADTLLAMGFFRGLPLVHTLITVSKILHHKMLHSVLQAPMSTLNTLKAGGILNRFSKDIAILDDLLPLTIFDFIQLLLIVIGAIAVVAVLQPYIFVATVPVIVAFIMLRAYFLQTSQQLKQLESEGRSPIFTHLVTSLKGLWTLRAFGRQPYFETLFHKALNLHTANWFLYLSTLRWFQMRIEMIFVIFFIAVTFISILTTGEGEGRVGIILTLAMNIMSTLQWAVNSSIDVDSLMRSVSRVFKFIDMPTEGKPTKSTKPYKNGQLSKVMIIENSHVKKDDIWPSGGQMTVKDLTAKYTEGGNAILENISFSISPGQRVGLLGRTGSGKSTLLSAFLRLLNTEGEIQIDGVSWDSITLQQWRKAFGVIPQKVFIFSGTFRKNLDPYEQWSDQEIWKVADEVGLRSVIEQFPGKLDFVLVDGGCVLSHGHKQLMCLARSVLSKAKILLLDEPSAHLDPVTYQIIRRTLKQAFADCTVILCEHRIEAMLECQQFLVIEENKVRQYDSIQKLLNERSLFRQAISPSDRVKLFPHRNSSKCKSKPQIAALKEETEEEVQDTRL
On to `CC1(C)C[C@@H]2CCCNc3cccc(n3)S(=O)(=O)NC(=O)c3ccc(-n4ccc(OCCC5([Si](C)(C)C)CC5)n4)nc3N1C2`, for which the EC50 was less than 1000 nM.
In the case of `CC1(C)C[C@@H]2CCCNc3cccc(n3)S(=O)(=O)NC(=O)c3ccc(-n4ccc(OCC[Si](C)(C)C)n4)nc3N1C2` it was less than 1000 nM.
In the case of `CC1(C)C[C@@H]2CCCNc3cccc(n3)S(=O)(=O)NC(=O)c3ccc(-n4ccc(OC[Si](C)(C)C)n4)nc3N1C2` it was less than 1000 nM.
`CC1(C)C[C@@H]2CCCNc3cccc(n3)S(=O)(=O)NC(=O)c3ccc(-n4ccc(OCCC[Si](C)(C)C)n4)nc3N1C2`: the EC50 was less than 1000 nM.
Under `CC(C)(C)CC[Si](C)(C)c1ccn(-c2ccc3c(n2)N2C[C@@H](CCCNc4cccc(n4)S(=O)(=O)NC3=O)CC2(C)C)n1` stands less than 1000 nM.
In the case of `CC1(C)C[C@@H]2CCCNc3cccc(n3)S(=O)(=O)NC(=O)c3ccc(-n4ccc(OC[Si](C)(C)C5(C(F)(F)F)CC5)n4)nc3N1C2` it was less than 1000 nM.
